Data on 22 compounds can be found in patent publication US20100204203A1, “Chemical Compounds 637: Pyridopyrimidinediones as PDE4 Inhibitors” (priority 2007, published 2010).

Structures are written as SMILES.

recombinant Human Phosphodiesterase B2 (PDE4B2), sequence (Q07343 1-564 isoform Q07343-2): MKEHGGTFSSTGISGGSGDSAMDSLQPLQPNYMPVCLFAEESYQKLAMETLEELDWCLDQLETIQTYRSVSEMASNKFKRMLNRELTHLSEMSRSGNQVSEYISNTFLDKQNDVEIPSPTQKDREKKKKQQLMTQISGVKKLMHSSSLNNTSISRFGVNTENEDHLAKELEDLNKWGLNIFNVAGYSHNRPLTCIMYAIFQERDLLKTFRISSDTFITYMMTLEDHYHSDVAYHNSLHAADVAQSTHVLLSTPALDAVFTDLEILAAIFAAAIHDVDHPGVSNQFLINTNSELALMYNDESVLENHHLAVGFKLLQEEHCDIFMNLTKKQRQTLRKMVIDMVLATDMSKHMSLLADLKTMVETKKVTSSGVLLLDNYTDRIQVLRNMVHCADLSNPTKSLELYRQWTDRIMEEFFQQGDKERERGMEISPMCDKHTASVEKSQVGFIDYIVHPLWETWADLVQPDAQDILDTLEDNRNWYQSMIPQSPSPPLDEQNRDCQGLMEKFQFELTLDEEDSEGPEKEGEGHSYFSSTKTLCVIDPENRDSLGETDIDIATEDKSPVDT

For this assay, the target named is recombinant Human Phosphodiesterase B2 (PDE4B2) (Homo sapiens, UniProt Q07343). Nature of the assay: Human Phosphodiesterase B2 Radiometric Assay (yttrium silicate SPA beads, [3H]cyclic AMP). Format: biochemical. Conditions: recombinant human PDE4B2, radiometric SPA assay, 8 nM [3H]cyclic AMP; read-out: PDE4B2 pIC50 (converted). Summed up:
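Read-out is scintillation proximity: yttrium silicate beads (with 18 mM ZnSO4, added to stop the reaction) bind 5′AMP formed from 8 nM [3H]cAMP over 20 min. Beforehand, compound and 0.1 mg/mL enzyme were preincubated 30 min at 30 °C in pH 7.5 HEPES buffer with MgCl2, EGTA and Brij 35; pIC50 values were curve-fitted.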
Regarding `O=C(N[C@H]1CC[C@@H](n2c(=O)c3cc(F)cnc3n(-c3cccc(-c4ccc(CN5CCN(C6CCCC6)CC5)cc4)c3)c2=O)CC1)c1cnccn1` [Example 295, N-{cis-4-[1-{4′-[(4-cyclopentylpiperazin-1-yl)methyl]biphenyl-3-yl}-6-fluoro-2,4-dioxo-1,4-dihydropyrido[2,3-d]pyrimidin-3(2H)-yl]cyclohexyl} pyrazine-2-carboxamide], the IC50 is 0.1 nM.

For the compound `Cc1cccc(C(=O)N[C@H]2CC[C@@H](n3c(=O)c4cc(F)cnc4n(-c4cccc(-c5ccc(CN6CCN(C7CCCC7)CC6)cc5)c4)c3=O)CC2)n1` [Example 294, N-{cis-4-[1-{4′-[(4-cyclopentylpiperazin-1-yl)methyl]biphenyl-3-yl}-6-fluoro-2,4-dioxo-1,4-dihydropyrido[2,3-d]pyrimidin-3(2H)-yl]cyclohexyl}-6-methylpyridine-2-carboxamide], the IC50 is 0.0158 nM. As to `O=c1c2cc(F)cnc2n(-c2cccc(-c3ccccc3)c2)c(=O)n1[C@@H]1CCNC1` [Example 107, 1-biphenyl-3-yl-6-fluoro-3-[(3R)-pyrrolidin-3-yl]pyrido[2,3-d]pyrimidine-2,4(1H,3H)-dione], the IC50 is 100 nM.

On to `COCCN(C)Cc1ccc(-c2cccc(-n3c(=O)n([C@H]4CC[C@@H](NC(=O)c5cc(C)n(C)n5)CC4)c(=O)c4cc(F)cnc43)c2)cc1` [Example 217, N-{cis-4-[6-fluoro-1-(4′-{[(2-methoxyethyl)(methyl)amino]methyl}biphenyl-3-yl)-2,4-dioxo-1,4-dihydropyrido[2,3-d]pyrimidin-3(2H)-yl]cyclohexyl}-1,5-dimethyl-1H-pyrazole-3-carboxamide], for which the IC50 was 0.0316 nM. Next, `O=C(N[C@H]1CC[C@@H](n2c(=O)c3cc(F)cnc3n(-c3cccc(-c4ccc(CN5CCOCC5)cc4)c3)c2=O)CC1)c1cn2c(n1)CCCC2` [Example 109, N-{cis-4-[6-fluoro-1-[4′-(morpholin-4-ylmethyl)biphenyl-3-yl]-2,4-dioxo-1,4-dihydropyrido[2,3-d]pyrimidin-3(2H)-yl]cyclohexyl}-5,6,7,8-tetrahydroimidazo[1,2-a]pyridine-2-carboxamide]: 0.0158 nM; `O=c1c2cc(F)cnc2n(-c2cccc(-c3ccc(O)cc3CN3CCCOCC3)c2)c(=O)n1[C@H]1CC[C@@H](NCc2cccn3ccnc23)CC1` [Example 372, 6-fluoro-1-[4′-hydroxy-2′-(1,4-oxazepan-4-ylmethyl)biphenyl-3-yl]-3-{cis-4-[(imidazo[1,2-a]pyridin-8-ylmethyl)amino]cyclohexyl}pyrido[2,3-d]pyrimidine-2,4(1H,3H)-dione]: 0.631 nM. As to `Cc1cccc(C(=O)N[C@H]2CC[C@@H](n3c(=O)c4cc(F)cnc4n(-c4cccc(-c5ccc(CN6CCC(N7CCCCC7)CC6)cc5)c4)c3=O)CC2)n1` [Example 299, N-{cis-4-[1-[4′-(1,4′-bipiperidin-1′-ylmethyl)biphenyl-3-yl]-6-fluoro-2,4-dioxo-1,4-dihydropyrido[2,3-d]pyrimidin-3(2H)-yl]cyclohexyl}-6-methylpyridine-2-carboxamide], the IC50 is 0.0158 nM.

In the case of `O=c1c2cc(F)cnc2n(-c2cccc(-c3ccc(O)cc3CN3CCC[C@H]3CO)c2)c(=O)n1[C@H]1CC[C@@H](NCc2cn3cc(F)ccc3n2)CC1` [Example 330, 6-fluoro-3-(cis-4-{[(6-fluoroimidazo[1,2-a]pyridin-2-yl)methyl]amino}cyclohexyl)-1-(4′-hydroxy-2′-{[(2S)-2-(hydroxymethyl)pyrrolidin-1-yl]methyl}biphenyl-3-yl)pyrido[2,3-d]pyrimidine-2,4(1H,3H)-dione], the IC50 was 2.51 nM. Next, `CCCN1CCN(Cc2ccc(-c3cccc(-n4c(=O)n([C@H]5CC[C@@H](NC(=O)C6(N(C)C)CC6)CC5)c(=O)c5cc(F)cnc54)c3)cc2)CC1` [Example 208, 1-(dimethylamino)-N-{cis-4-[6-fluoro-2,4-dioxo-1-{4′-[(4-propylpiperazin-1-yl)methyl]biphenyl-3-yl}-1,4-dihydropyrido[2,3-d]pyrimidin-3(2H)-yl]cyclohexyl} cyclopropanecarboxamide]: 0.0126 nM; `Cc1cnc(C(=O)N[C@H]2CC[C@@H](n3c(=O)c4cc(F)cnc4n(-c4cccc(-c5ccc(CN6C[C@@H](C)N[C@@H](C)C6)cc5)c4)c3=O)CC2)cn1` [Example 361, N-{cis-4-[1-(4′-{[(3R,5S)-3,5-dimethylpiperazin-1-yl]methyl}biphenyl-3-yl)-6-fluoro-2,4-dioxo-1,4-dihydropyrido[2,3-d]pyrimidin-3(2H)-yl]cyclohexyl}-5-methylpyrazine-2-carboxamide]: 0.2 nM. In the case of `O=c1c2cc(F)cnc2n(-c2cccc(-c3ccc(O)cc3CN3CCCCC3)c2)c(=O)n1[C@H]1CC[C@@H](NCc2cn3cc(F)ccc3n2)CC1` [Example 255, 6-Fluoro-3-(cis-4-{[(6-fluoroimidazo[1,2-c]pyridin-2-yl)methyl]amino}cyclohexyl)-1-[4′-hydroxy-2′-(piperidin-1-ylmethyl)biphenyl-3-yl]pyrido[2,3-d]pyrimidine-2,4(1H,3H)-dione] it was 0.126 nM.

Regarding `CCCNC1(C(=O)N[C@H]2CC[C@@H](n3c(=O)c4cc(F)cnc4n(-c4cccc(-c5ccccc5CN5CCOCC5)c4)c3=O)CC2)CCCC1` [Example 275, N-{cis-4-[6-Fluoro-1-[2′-(morpholin-4-ylmethyl)biphenyl-3-yl]-2,4-dioxo-1,4-dihydropyrido[2,3-d]pyrimidin-3(2H)-yl]cyclohexyl}-1-(propylamino)cyclopentanecarboxamide], the IC50 is 3.98 nM. In the case of `Cc1cccc2nc(C(=O)N[C@H]3CC[C@@H](n4c(=O)c5cc(F)cnc5n(-c5cccc(-c6ccc(CN7CCNCC7)cc6)c5)c4=O)CC3)cn12` [Example 111, N-{cis-4-[6-fluoro-2,4-dioxo-1-[4′-(piperazin-1-ylmethyl)biphenyl-3-yl]-1,4-dihydropyrido[2,3-d]pyrimidin-3(2H)-yl]cyclohexyl}-5-methylimidazo[1,2-a]pyridine-2-carboxamide] it was 0.0126 nM; in that of `Cc1cc(C(=O)N[C@H]2CC[C@@H](n3c(=O)c4cc(F)cnc4n(-c4cccc(-c5ccc(CN6CCN(C(C)C)CC6)cc5)c4)c3=O)CC2)nn1C` [Example 114, N-{cis-4-[6-fluoro-1-{4′-[(4-isopropylpiperazin-1-yl)methyl]biphenyl-3-yl}-2,4-dioxo-1,4-dihydropyrido[2,3-d]pyrimidin-3(2H)-yl]cyclohexyl}-1,5-dimethyl-1H-pyrazole-3-carboxamide], 0.00794 nM; in that of `O=c1c2cc(F)cnc2n(-c2cccc(-c3ccccc3)c2)c(=O)n1[C@H]1CC[C@@H](NCc2cn3cc(F)ccc3n2)CC1` [Example 74, 1-biphenyl-3-yl-6-fluoro-3-(cis-4-{[(6-fluoroimidazo[1,2-a]pyridin-2-yl)methyl]amino}cyclohexyl)pyrido[2,3-d]pyrimidine-2,4(1H,3H)-dione], 0.794 nM. In the case of `CN(C)Cc1ccc(-c2cccc(-n3c(=O)n([C@H]4CC[C@@H](NC(=O)c5ccccc5OCCO)CC4)c(=O)c4cc(F)cnc43)c2)cc1` [Example 272, N-{cis-4-[1-{4′-[(Dimethylamino)methyl]biphenyl-3-yl}-6-fluoro-2,4-dioxo-1,4-dihydropyrido[2,3-d]pyrimidin-3(2H)-yl]cyclohexyl}-2-(2-hydroxyethoxy)benzamide] it was 0.794 nM; in that of `N[C@H]1CC[C@@H](n2c(=O)c3cc(F)cnc3n(-c3cccc(C(=O)O)c3)c2=O)CC1` [Example 91, 3-[3-(cis-4-aminocyclohexyl)-6-fluoro-2,4-dioxo-3,4-dihydropyrido[2,3-d]pyrimidin-1(2H)-yl]benzoic acid], 7.94 nM. On to `COc1ccc(O)c(CN[C@H]2CC[C@@H](n3c(=O)c4cc(F)cnc4n(-c4cccc(-c5ccc(CN6CCCOCC6)cc5)c4)c3=O)CC2)c1` [Example 267, 6-fluoro-3-{cis-4-[(2-hydroxy-5-methoxybenzyl)amino]cyclohexyl}-1-[4′-(1,4-oxazepan-4-ylmethyl)biphenyl-3-yl]pyrido[2,3-d] pyrimidine-2,4(1H,3H)-dione], for which the IC50 is 1.58 nM. In the case of `O=C(N[C@H]1CC[C@@H](n2c(=O)c3cc(F)cnc3n(-c3cccc(-c4ccc(CN5CCC(N6CCCCC6)CC5)cc4)c3)c2=O)CC1)c1cn2c(n1)CCCC2` [Example 223, N-{cis-4-[1-[4′-(1,4′-bipiperidin-1′-ylmethyl)biphenyl-3-yl]-6-fluoro-2,4-dioxo-1,4-dihydropyrido[2,3-d]pyrimidin-3(2H)-yl]cyclohexyl}-5,6,7,8-tetrahydroimidazo[1,2-a]pyridine-2-carboxamide] it was 0.01 nM; in that of `CC(=O)N[C@H]1CC[C@@H](n2c(=O)c3cc(F)cnc3n(-c3cccc(-c4ccccc4CN4CCOCC4)c3)c2=O)CC1` [Example 62, N-{cis-4-[6-fluoro-1-[2′-(morpholin-4-ylmethyl)biphenyl-3-yl]-2,4-dioxo-1,4-dihydropyrido[2,3-d]pyrimidin-3(2H)-yl]cyclohexyl}acetamide], 0.316 nM.

For `CC(C)N1CCN(Cc2ccc(-c3cccc(-n4c(=O)n([C@H]5CC[C@@H](NC(=O)c6ccsc6)CC5)c(=O)c5cc(F)cnc54)c3)cc2)CC1` [Example 245, N-{cis-4-[6-fluoro-1-{4′-[(4-isopropylpiperazin-1-yl)methyl]biphenyl-3-yl}-2,4-dioxo-1,4-di-hydropyrido[2,3-d]pyrimidin-3(2H)-yl]cyclohexyl}thiophene-3-carboxamide], the IC50 was 0.02 nM. As to `CN(Cc1cn2cc(F)ccc2n1)[C@H]1CC[C@@H](n2c(=O)c3cc(F)cnc3n(-c3cccc(-c4ccc(O)cc4CN4CCOCC4)c3)c2=O)CC1` [Example 286, 6-fluoro-3-{cis-4-[[(6-fluoroimidazo[1,2-a]pyridin-2-yl)methyl](methyl)amino]cyclohexyl}-1-[4′-hydroxy-2′-(morpholin-4-ylmethyl)biphenyl-3-yl]pyrido[2,3-d]pyrimidine-2,4(1H,3H)-dione], the IC50 was 2 nM.
